What was measured:
[1] = biological target: T1, Ba/F3-FGFR1-transfected cells (Homo sapiens, UniProt P11362); test: Ba/F3-FGFR1 (minus IL3) cellular proliferation assay, Alamar Blue; assay type: cell-based
T1 construct: BAF3-FGFR1 (MIN IL3) pIC50; other: minus IL3
Method in brief: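 Ba/F3-FGFR1 cells (20000 per well) were exposed to compound for 24 h at 37 °C in RPMI-1640 with 10% FBS. Alamar Blue (resazurin) was then added for 4 h, and fluorescence was read at ex 540/em 590 nm.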

[2] = tested on: Ba/F3-FGFR1-transfected cells; test: Ba/F3-FGFR1 (plus IL3) cellular proliferation assay, counterscreen with 10 ng/ml murine IL3; assay type: cell-based; conditions: plus IL3 (10 ng/ml murine IL3, counterscreen)
Method in brief: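 Ba/F3-FGFR1 cells (20000/well) in RPMI-1640 with 10% FBS exposed to compound for 24 h at 37° C., 5% CO2, then Alamar Blue (resazurin) added for 4 h; fluorescence read at ex 540/em 590 nm. Counterscreen run identically with 10 ng/ml murine IL3.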

[3] = biological target: T2, Ba/F3-FGFR3-transfected cells (Homo sapiens, UniProt P22607); test: Ba/F3-FGFR3 (minus IL3) cellular proliferation assay, Alamar Blue; assay type: cell-based
T2 construct: BAF3-FGFR3 (MIN IL3) pIC50; other: minus IL3
T2 sequence (P22607 whole entry, change not shown): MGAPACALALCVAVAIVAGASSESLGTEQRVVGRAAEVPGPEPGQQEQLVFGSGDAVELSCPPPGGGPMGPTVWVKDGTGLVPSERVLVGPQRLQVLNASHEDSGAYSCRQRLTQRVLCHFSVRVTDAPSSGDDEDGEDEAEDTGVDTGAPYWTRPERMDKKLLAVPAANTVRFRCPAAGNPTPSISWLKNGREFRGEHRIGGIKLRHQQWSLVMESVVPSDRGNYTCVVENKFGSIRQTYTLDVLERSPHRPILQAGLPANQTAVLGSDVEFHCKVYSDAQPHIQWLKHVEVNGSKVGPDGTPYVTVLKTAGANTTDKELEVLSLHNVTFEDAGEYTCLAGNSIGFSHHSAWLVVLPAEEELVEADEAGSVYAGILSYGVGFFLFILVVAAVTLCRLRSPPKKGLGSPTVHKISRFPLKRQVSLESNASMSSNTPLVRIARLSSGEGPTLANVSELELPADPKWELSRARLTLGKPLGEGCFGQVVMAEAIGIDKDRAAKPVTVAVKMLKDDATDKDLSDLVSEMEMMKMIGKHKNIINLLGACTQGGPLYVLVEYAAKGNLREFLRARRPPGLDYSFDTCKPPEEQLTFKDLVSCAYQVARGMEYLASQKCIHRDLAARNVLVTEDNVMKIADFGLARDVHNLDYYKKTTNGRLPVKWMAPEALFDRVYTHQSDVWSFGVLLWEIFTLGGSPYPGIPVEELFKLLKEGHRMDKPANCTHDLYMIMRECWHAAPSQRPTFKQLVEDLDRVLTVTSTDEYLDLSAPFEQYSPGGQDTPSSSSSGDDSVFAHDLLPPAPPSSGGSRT
Method in brief: (§1)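 Ba/F3 cells transfected with FGFR3, 20000/well in phenol red-free RPMI-1640 with 10% FBS, exposed to compound for 24 h at 37 °C, 5% CO2. Alamar Blue (resazurin) added for 4 h more; fluorescence read at ex 540/em 590 nm. Counterscreen run the same way with 10 ng/ml murine IL3.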

[4] = biological target: Ba/F3-FGFR4-transfected cells (Homo sapiens, UniProt P22455); test: Ba/F3-FGFR4 cellular proliferation assay, Alamar Blue; assay type: cell-based
Chain of Ba/F3-FGFR4-transfected cells (P22455 whole entry, change not shown): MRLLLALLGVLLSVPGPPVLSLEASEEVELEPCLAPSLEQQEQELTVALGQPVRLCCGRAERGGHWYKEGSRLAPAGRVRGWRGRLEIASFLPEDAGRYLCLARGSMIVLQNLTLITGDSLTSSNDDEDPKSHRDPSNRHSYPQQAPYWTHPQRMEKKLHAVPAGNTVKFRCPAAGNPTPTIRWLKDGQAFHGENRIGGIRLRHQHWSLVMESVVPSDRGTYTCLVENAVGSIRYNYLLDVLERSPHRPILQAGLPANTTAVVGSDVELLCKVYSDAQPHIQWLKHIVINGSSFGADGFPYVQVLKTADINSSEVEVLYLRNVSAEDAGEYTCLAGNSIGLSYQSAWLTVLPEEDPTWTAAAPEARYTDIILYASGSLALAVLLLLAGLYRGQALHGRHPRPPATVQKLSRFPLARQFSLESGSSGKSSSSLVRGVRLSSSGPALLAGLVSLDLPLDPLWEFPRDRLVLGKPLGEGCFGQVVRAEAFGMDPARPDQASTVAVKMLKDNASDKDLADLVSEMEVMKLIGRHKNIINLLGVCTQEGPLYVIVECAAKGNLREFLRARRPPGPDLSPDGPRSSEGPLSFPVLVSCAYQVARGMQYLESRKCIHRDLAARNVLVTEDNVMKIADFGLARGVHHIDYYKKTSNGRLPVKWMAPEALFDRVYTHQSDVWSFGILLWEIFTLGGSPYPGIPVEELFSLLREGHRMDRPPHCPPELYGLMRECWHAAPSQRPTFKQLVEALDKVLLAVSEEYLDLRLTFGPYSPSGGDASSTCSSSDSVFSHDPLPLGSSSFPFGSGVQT
Method in brief: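 20000 cells/well, RPMI-1640 (phenol red free) + 10% FBS + 2 mM L-Gln; cpd from DMSO; 24 h, 37° C, 5% CO2; Alamar Blue 4 h; RFU ex 540/em 590 nm.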

KDR (h) = KDR (h) (Homo sapiens, UniProt P35968); test: KDR (VEGFR2) (enzymatic assay), TR-FRET; assay type: biochemical; conditions: average values if tested multiple times, read-out: VEGFR 2 (KDR) pIC50 (converted)
Method in brief: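 Read-out is TR-FRET (ex 340 nm, em 620 and 655 nm) in RFU, after an EDTA stop carrying Eu-labelled anti-phosphotyrosine and SA-XL-665 (60 min, RT). The preceding kinase reaction ran 120 min at RT with 150 ng/ml enzyme, 500 nM Btn-Flt3 and 3 μM ATP.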

[5] = biological target: T3, Ba/F3-KDR-transfected cells (Homo sapiens, UniProt P35968); test: Ba/F3-KDR (minus IL3) cellular proliferation assay, Alamar Blue; assay type: cell-based
T3 construct: BAF3-KDR (MIN IL3) pIC50; other: minus IL3
Method in brief: (§2)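 20000 cells/well, RPMI-1640 + 10% FBS + 2 mM L-Gln; compound 24 h, 37° C/5% CO2; Alamar Blue 4 h; RFU ex540/em590.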

FGFR2 (h) = FGFR2 (h) (Homo sapiens, UniProt P21802); test: FGFR2 (enzymatic assay), TR-FRET; assay type: biochemical; conditions: enzymatic assay; average values if tested multiple times; read-out: FGFR 2 pIC50 (converted)
Method in brief: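 Human FGFR2 (150 ng/ml) was incubated with 500 nM Btn-Flt3 substrate and 0.4 μM ATP in 50 mM HEPES pH 7.5, 6 mM MnCl2, 1 mM DTT, 0.1 mM Na3VO4, 0.01% Triton-X-100. Compound was present at 1% DMSO final.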

FGFR3 (h) = FGFR3 (h) (Homo sapiens, UniProt P22607); test: FGFR3 (enzymatic assay), TR-FRET; assay type: biochemical; conditions: average values if tested multiple times, read-out: FGFR 3 pIC50 (converted)
Chain of FGFR3 (h) (P22607 23-806): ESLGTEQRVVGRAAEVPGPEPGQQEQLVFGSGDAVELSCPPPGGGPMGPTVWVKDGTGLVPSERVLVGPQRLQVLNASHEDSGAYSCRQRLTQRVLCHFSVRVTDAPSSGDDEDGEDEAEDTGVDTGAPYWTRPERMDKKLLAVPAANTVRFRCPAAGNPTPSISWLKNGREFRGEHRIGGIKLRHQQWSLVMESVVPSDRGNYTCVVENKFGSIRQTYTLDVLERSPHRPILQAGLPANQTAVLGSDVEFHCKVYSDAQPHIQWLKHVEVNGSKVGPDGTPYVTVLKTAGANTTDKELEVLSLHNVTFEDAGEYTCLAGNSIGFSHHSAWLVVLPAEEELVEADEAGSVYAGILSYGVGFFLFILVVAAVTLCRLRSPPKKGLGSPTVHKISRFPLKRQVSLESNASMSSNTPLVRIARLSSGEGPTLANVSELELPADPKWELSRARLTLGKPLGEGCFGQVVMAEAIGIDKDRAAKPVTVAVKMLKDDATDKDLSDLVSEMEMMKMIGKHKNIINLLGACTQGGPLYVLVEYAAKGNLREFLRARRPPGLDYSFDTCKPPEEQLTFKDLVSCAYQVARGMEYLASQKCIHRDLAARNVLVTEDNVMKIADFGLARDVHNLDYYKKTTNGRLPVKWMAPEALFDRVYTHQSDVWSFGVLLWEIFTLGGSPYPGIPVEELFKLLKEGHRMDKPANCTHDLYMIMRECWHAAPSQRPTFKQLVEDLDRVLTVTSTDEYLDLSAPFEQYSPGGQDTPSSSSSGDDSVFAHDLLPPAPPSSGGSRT
Source text: Time-Resolved Fluorescence Resonance Energy Transfer (TR-FRET) signal (ex340 nm.

FGFR1 (h) = FGFR1 (h) (Homo sapiens, UniProt P11362); test: FGFR1 (enzymatic assay), TR-FRET; assay type: biochemical; conditions: average values if tested multiple times, read-out: FGFR 1 pIC50 (converted)
Chain of FGFR1 (h) (P11362 22-822): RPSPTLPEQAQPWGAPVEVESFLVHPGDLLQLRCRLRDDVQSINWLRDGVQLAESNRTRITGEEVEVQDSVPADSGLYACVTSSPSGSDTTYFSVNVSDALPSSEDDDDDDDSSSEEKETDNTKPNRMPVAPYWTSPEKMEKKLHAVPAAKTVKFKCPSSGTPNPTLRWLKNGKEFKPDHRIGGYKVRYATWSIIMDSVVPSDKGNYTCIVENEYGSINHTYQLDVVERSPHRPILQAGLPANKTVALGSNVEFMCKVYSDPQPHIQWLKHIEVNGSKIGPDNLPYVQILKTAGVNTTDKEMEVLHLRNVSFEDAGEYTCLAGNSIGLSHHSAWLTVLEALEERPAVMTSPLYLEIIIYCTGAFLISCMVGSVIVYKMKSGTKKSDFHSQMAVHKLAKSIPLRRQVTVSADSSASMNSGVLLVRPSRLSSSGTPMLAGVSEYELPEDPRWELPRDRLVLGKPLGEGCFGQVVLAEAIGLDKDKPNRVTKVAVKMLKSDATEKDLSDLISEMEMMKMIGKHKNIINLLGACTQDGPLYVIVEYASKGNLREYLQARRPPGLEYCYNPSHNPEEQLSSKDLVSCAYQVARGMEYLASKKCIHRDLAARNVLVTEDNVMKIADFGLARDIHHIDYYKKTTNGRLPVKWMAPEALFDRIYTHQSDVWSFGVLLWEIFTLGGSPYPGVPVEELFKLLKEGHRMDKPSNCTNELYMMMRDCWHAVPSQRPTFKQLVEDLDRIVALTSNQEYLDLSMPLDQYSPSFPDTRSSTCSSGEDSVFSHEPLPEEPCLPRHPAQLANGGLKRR

[6] = tested on: Ba/F3-KDR-transfected cells; test: Ba/F3-KDR (plus IL3) cellular proliferation assay, counterscreen with 10 ng/ml murine IL3; assay type: cell-based; conditions: plus IL3 (10 ng/ml murine IL3, counterscreen)
Method in brief: as §2

FGFR4 (h) = FGFR4 (h) (Homo sapiens, UniProt P22455); test: FGFR4 (enzymatic assay), TR-FRET; assay type: biochemical; conditions: FGFR 4 pIC50, enzymatic assay; average values if tested multiple times
Chain of FGFR4 (h) (P22455 22-802): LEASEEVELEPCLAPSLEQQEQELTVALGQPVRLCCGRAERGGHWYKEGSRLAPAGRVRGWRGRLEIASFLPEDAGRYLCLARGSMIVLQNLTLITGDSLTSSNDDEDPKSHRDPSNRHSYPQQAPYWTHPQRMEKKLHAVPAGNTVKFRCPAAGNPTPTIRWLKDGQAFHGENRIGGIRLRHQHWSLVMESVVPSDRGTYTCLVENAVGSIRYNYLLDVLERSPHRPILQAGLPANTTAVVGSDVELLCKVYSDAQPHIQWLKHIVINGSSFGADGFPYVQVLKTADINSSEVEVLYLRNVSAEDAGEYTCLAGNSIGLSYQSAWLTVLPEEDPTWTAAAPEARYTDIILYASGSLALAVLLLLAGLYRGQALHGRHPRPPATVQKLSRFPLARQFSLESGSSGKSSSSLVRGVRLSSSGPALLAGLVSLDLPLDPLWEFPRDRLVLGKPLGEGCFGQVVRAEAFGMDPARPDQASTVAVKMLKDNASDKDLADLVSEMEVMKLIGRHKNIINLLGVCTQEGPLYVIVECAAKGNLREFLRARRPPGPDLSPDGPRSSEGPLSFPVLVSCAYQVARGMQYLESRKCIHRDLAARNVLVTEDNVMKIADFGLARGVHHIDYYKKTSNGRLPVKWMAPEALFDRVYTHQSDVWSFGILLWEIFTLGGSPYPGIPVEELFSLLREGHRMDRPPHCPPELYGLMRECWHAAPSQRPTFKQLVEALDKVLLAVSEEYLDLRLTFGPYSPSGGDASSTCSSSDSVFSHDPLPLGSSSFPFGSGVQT

[7] = tested on: Ba/F3-FGFR3-transfected cells; test: Ba/F3-FGFR3 (plus IL3) cellular proliferation assay, counterscreen with 10 ng/ml murine IL3; assay type: cell-based; conditions: plus IL3 (10 ng/ml murine IL3, counterscreen)
Method in brief: as §1

T1 sequence (P11362 whole entry, change not shown): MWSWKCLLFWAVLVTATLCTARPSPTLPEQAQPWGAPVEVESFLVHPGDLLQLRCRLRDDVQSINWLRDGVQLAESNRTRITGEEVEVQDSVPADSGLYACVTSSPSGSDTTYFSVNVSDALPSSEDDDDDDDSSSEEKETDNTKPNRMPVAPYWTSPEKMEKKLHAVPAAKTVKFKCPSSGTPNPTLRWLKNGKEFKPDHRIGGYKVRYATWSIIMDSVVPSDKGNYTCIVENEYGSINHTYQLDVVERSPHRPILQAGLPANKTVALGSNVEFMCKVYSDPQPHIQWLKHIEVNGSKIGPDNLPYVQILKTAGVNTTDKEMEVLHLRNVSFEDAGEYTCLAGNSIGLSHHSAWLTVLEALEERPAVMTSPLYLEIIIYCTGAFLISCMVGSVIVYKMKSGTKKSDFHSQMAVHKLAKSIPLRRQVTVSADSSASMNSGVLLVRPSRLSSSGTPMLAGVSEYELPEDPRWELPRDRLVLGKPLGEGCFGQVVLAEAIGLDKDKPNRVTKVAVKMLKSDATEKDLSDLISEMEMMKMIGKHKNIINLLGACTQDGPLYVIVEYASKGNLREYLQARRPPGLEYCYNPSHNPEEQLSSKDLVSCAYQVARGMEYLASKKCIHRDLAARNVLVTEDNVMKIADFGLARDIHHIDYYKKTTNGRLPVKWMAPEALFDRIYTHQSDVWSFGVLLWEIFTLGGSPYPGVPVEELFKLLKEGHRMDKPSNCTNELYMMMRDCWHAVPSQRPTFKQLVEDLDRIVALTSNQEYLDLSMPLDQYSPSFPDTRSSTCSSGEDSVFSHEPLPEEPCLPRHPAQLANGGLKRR

SMILES	BAF3-FGFR1 (MIN IL3) pIC50 [1]	BAF3-FGFR1 (PLUS IL3) pIC50 [2]	BAF3-FGFR3 (MIN IL3) pIC50 [3]	BAF3-FGFR4 pIC50 [4]	IC50 (KDR (h))	melting point	BAF3-KDR (MIN IL3) pIC50 [5]	IC50 (FGFR2 (h))	IC50 (FGFR3 (h))	IC50 (FGFR1 (h))	BAF3-KDR (PLUS IL3) pIC50 [6]	IC50 (FGFR4 (h))	BAF3-FGFR3 (PLUS IL3) pIC50 [7]
COc1cc(OC)c(F)c(/N=c2\ccc3ncc(-c4cnn(C)c4)nc3n2CC2CCC(=O)N2)c1F (centres unmarked) [Compound 47]	7.86	<5	~7.76	6.70	12.6 nM	169 °C	6.28	1.41 nM	~0.933 nM	0.661 nM	<5	1.45 nM	<5
COc1cc(OC)cc(N(CC2CCC(=O)N2)c2ccc3ncc(-c4cnn(C)c4)nc3n2)c1 (centres unmarked) [Compound 54]	6.64	<5	6.83	6.05	66.1 nM	125 °C	5.39	4.9 nM	3.02 nM	6.76 nM	<5	17.4 nM	<5
